According to paper PMC9532951, “Identification and characterization of a novel SNAT2 (SLC38A2) inhibitor reveals synergy with glucose transport inhibition in cancer cells” (Frontiers in Pharmacology, 2022):
Where “and” joins values, the source holds several entries; their conditions need not be identical. Identical values can stand only once. Like-named read-outs stand apart in the source and are kept apart here.

Columns and labels:
B0AT1 (SLC6A19) = biological target: T1, B0AT1 (SLC6A19) (Homo sapiens, UniProt Q695T7); test: Leucine uptake in CHO cells stably expressing human B0AT1 and collectrin; assay type: cell-based; conditions: 150 µM leucine, hit compounds at 30 µM, n = 3
T1 construct: expressed in transfected cells
T1 sequence (Q695T7 1-634): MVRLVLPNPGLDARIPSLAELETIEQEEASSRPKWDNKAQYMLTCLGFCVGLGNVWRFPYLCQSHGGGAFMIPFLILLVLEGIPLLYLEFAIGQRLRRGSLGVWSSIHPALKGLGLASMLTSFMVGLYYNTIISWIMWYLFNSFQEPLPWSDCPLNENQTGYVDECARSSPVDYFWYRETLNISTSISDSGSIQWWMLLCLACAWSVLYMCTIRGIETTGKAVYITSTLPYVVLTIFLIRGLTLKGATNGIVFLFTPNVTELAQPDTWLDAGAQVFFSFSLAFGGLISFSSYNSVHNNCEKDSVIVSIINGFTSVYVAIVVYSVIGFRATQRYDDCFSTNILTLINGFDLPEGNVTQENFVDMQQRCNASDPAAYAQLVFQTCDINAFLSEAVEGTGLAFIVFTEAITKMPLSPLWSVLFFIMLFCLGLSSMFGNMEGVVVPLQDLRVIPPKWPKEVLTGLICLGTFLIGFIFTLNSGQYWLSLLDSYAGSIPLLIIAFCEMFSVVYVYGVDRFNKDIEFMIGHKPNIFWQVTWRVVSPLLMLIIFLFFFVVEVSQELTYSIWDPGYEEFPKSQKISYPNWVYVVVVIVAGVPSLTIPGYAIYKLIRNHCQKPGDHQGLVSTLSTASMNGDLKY
T1 sequence (Q9HBJ8 15-222 partner): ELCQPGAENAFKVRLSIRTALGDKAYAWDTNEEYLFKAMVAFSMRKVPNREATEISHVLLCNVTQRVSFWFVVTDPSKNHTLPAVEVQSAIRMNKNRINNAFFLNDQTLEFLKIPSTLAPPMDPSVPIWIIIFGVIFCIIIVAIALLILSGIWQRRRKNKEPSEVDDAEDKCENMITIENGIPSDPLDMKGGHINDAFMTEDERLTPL

HPAFII cells = test: Growth assay (IncuCyte confluence), HPAFII; assay type: cell-based, human; parameters: key to Growth (Figure 6A) / cell confluence (Figure 6F): % confluence
Procedure: (§1) Cells were seeded on 96-well flat bottom plates at approximately 3000 cells/well and incubated in growth medium (DMEM/F12 supplemented with 10% FBS, 2 mM glutamine) for 24 h. The next day, the growth medium was aspirated and exchanged with 300 μL/well of growth medium containing compounds at the indicated concentration. For live cell analysis, plates were placed in the IncuCyte system (Essen Bioscience), which was housed in a cell incubator (37°C, humidified atmosphere composed of 95% air and 5% CO2) and confluence measured at 6-h intervals or at the assay endpoint when untreated control cells reached a confluency >90%. Antibiotics (10 U/mL penicillin and 10 μg/ml streptomycin) were included in the treatment solutions.
(§2) Growth curves were generated using the Gompertz function of OriginPro software: y=ae^−e^(−k(x−xc))
(§3) Where a is the maximum confluence or upper asymptote, k is the growth rate coefficient, xc is the time point at which 50% confluence is reached (inflection point) and e is Euler’s number. Cell growth data are shown as % confluence.
Synergism between drug combinations was quantified using ZIP synergy scoring as calculated by SynergyFinder ([Yadav et al., 2015]).

SKOV3 cells = test: Growth assay (IncuCyte confluence), SKOV3; assay type: cell-based, human; parameters: key to Growth (Figure 6A): % confluence; conditions: for Growth (Figure 6A): SKOV3
Procedure: as §1, §2, §3

OVCAR3 cells = test: Growth assay (IncuCyte confluence), OVCAR3; assay type: cell-based, human
Method in brief: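 OVCAR3 cells were seeded at about 3000 cells/well in 96-well plates in DMEM/F12 with 10% FBS and 2 mM glutamine for 24 h. They then received 300 μL/well of medium with compounds plus penicillin/streptomycin. Plates sat in an IncuCyte at 37°C and 5% CO2, and confluence was imaged every 6 h or at the endpoint once untreated controls passed 90%. Growth is given as % confluence, and curves were fitted with the Gompertz function in OriginPro.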

Cc1ccc(S(=O)(=O)N(C)c2ccsc2C(=O)NCc2ccccc2C(F)(F)F)cc1 [Compound 57_E, 3-(N-methyl (4-methylphenyl)sulfonamido)-N-(2-trifluoromethylbenzyl)thiophene-2-carboxamide] was tested, and the “Leucine uptake, Mean” value (B0AT1 (SLC6A19)) was 55.2874 nmol / mg protein x 6 min, the tolerated concentration (HPAFII cells) was at most 100 µM and the “Growth (Figure 6A)” value (HPAFII cells; concentration 1) was 93.8 and 96.25 and 96.4. For the same molecule, the “Growth (Figure 6A)” value (HPAFII cells; concentration 3) was 93.35 and 98.85 and 97.6, the “Growth (Figure 6A)” value (HPAFII cells; concentration 10) was 91.1 and 94.2 and 97.05 and the “Growth (Figure 6A)” value (HPAFII cells; concentration 30) was 73 and 75.75 and 89.85. For the same molecule, the “Growth (Figure 6A)” value (HPAFII cells; concentration 100) was 46.05 and 59.8 and 57.25, the tolerated concentration (HPAFII cells; growth medium) was “up to 30 μM” and the “growth of SKOV3 cells” value (SKOV3 cells; 57E 20 µM alone) was “did not slow growth”. For the same molecule, the tolerated concentration (SKOV3 cells; SKOV3, growth medium) was “up to 30 μM”, the “Growth (Figure 6A)” value (SKOV3 cells; concentration 1) was 88.8 and 91.35 and 86.25 and the “Growth (Figure 6A)” value (SKOV3 cells; concentration 3) was 85.9 and 94.3 and 88.85. The “Growth (Figure 6A)” value (SKOV3 cells; concentration 10) was 89 and 93.8 and 85, the “Growth (Figure 6A)” value (SKOV3 cells; concentration 30) was 64.8 and 80.1 and 77.7 and the “Growth (Figure 6A)” value (SKOV3 cells; concentration 100) was 70.05 and 72.4 and 76.75. For the same molecule, the “Growth (Figure 6A)” value (OVCAR3 cells; concentration 1) was 94.3 and 98.2 and 97.5, the “Growth (Figure 6A)” value (OVCAR3 cells; concentration 3) was 91.1 and 97.6 and 98.2 and the “Growth (Figure 6A)” value (OVCAR3 cells; concentration 10) was 93.85 and 97.6 and 98.05. For the same molecule, the “Growth (Figure 6A)” value (OVCAR3 cells; concentration 30) was 90.7 and 97.95 and the “Growth (Figure 6A)” value (OVCAR3 cells; concentration 100) was 89.25 and 92.95 and 91.35.
